The target in assay [1] is β-secretase (BACE1) (Homo sapiens, UniProt P56817). Briefly: BACE1 FRET enzyme assay, pH […]. The class given is biochemical.
Assay [2] concerns the target T1, α-glucosidase (rat intestinal).
T1 construct: supernatant of rat intestinal acetone powder
As to the kind of experiment: p-nitrophenyl-α-D-glucopyranoside hydrolysis, […] nm, crude intestinal enzyme. The class given is biochemical.

Chain of β-secretase (BACE1) (P56817 46-457): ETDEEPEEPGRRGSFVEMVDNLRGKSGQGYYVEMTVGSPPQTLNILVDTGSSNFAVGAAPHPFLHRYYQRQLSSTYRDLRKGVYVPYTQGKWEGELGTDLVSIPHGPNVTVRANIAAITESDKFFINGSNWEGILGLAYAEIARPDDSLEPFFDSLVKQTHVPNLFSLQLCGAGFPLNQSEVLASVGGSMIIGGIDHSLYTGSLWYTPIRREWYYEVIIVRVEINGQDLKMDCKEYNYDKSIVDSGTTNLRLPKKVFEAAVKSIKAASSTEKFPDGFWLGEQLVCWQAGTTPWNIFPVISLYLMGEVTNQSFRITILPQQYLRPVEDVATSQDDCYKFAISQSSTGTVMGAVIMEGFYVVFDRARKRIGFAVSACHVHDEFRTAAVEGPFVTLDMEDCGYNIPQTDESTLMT

For `CC1(C)CC[C@]2(C)CC[C@]3(C)C(=CC[C@@H]4[C@@]5(C)CCC(=O)C(C)(C)[C@@H]5[C@H](O)C[C@]43C)[C@@H]2C1` [compound 1, daturaolone], the IC50 in assay [1] was 260.7 ± 1.87 µM; in assay [2] it was 830.4 ± 2.01 µM.

The IC50 is the concentration that inhibits the measured activity by half. Read a low IC50 as greater potency in that assay.
